Assay results taken from patent US20120309728A1, “NEW STEROID INHIBITORS OF PGP FOR USE FOR INHIBITING MULTIDRUG RESISTANCE” (priority 2009, published 2012).

Legend:
K562/R7 cells [1] = test: Cytotoxicity assay using MTT reagent, with doxorubicin plus steroid modulator; assay type: cell-based, human; details: for Surviving cells R7 cells (% untreated cells): doxorubicin 10^−6M + steroid modulator 10^−6M, 72 h; for activity compared with cyclosporine A (in words): comment on Table 2 bis, R7 cells
Method: Doxorubicin at 10^−6 M was then added to each well. After incubation for 72 h, 20 μL of MTT reagent (5 mg/mL in PBS buffer) were added to each well and the plate was further incubated for 4 h at 37° C., allowing viable cells to change the yellow MTT into dark-blue formazan crystals. Supernatants were carefully discarded and 100 μL of isopropanol containing 10% HCL 1M were added to dissolve the formazan crystals. Absorbance in each well was determined at 570 nm using a microplate reader (MultisKan EX, Thermo Electron). […] At least three different experiments were performed. Results were expressed as the percentage of surviving cells in each well compared to untreated cells.

R7 cells = test: Intracellular accumulation of daunorubicin measured by flow cytometry; assay type: cell-based, human; details: for Daunorubicin accumulation: daunorubicin 10 μM, compound 10 μM, 1 h at 37° C.
Method: The accumulation of daunorubicin in the presence of steroid modulators according to the invention, i.e. compounds having formula (I), was measured by flow cytometry using a reported procedure (G. Comte et al, J. Med. Chem., 44: 763-768, 2001). K562 or R7 cells ([…]) were incubated for 1 h at 37° C. with 1 mL RPMI 1640 medium containing daunorubicin at 10 μM, in the presence or absence of compounds of the invention (10 μM). The cells were then washed twice with ice-cold PBS and kept on ice until analysis by flow cytometry on a FACS-II (Becton-Dickinson Corp., Mountain View, Calif.). Assays were performed in duplicate, in at least three separate experiments.

K562/R7 cells [2] = test: Determination of IC50 for cytotoxics ([^3H]thymidine incorporation); details: R7 cells, 24 h treatment
Method: After treatment, the number of surviving cells was evaluated by the incorporation of [^3H]thymidine as described above.

Compound: CC(=O)C1CCC2C3C[C@@H](OC(=O)c4ccccc4)[C@@H]4CC(=O)CCC4(C)C3[C@H](OC3CCCCO3)CC12C (mixture of isomers) [Compound 217, 6β-Benzoyloxy-11α-O-[2′(R and S)]tetrahydropyranyloxy(5β)pregnan-3,20-dione]
- Surviving cells R7 cells (% untreated cells) (K562/R7 cells [1]): 5.5 ± 0.4 % untreated cells

Compound: CC(=O)C1CCC2C3C[C@@H](OC(=O)c4ccccc4)[C@@H]4CC(=O)CCC4(C)C3[C@H](OC3CCCCO3)CC12C (mixture of isomers) [Compound 218, 6β-Benzoyloxy-11α-O-[2′(R and S)]tetrahydropyranyloxy(5β)pregnan-3,20-dione]
- Surviving cells R7 cells (% untreated cells) (K562/R7 cells [1]): 6.2 ± 1.1 % untreated cells

Compound: COC(=O)CC[C@@H](C)[C@H]1CC[C@H]2[C@@H]3[C@H](OC(=O)c4ccccc4)CC4CC(=O)CC[C@]4(C)[C@H]3C[C@H](O[C@@H]3CCCCO3)[C@]12C (single isomer, unassigned) [Compound 60]
- Surviving cells R7 cells (% untreated cells) (K562/R7 cells [1]): 2.2 ± 0.3 % untreated cells
- Daunorubicin accumulation (R7 cells): 79.8 ± 6.1 % of the accumulation measured in the presence of cyclosporine A

Compound: CC(=O)C1CCC2C3C(CC[C@]12C)[C@@]1(C)CCC(=O)C=C1C[C@@H]3OC1CCCCO1 (stereo partly drawn) [Compound 3, 7beta-O-[2′(R+S)]Tetrahydropyranyloxypregn-4-ene-3,20-dione]
- Daunorubicin accumulation (R7 cells): 108.78 ± 4.27 % of the accumulation measured in the presence of cyclosporine A

Compound: CC(=O)C1CCC2C3CC[C@@H]4CC(=O)CC[C@]4(C)C3[C@H](OC3CCCCO3)C[C@]12C (stereo partly drawn) [Compound 7, 11α-O-[2′(R)]Tetrahydropyranyloxy(5β)pregnane-3,20-dione]
- Daunorubicin accumulation (R7 cells): 103.0 ± 1.86 % of the accumulation measured in the presence of cyclosporine A

Compound: CC(=O)[C@@]1(OC2CCCCO2)CCC2C3CCC4=CC(=O)CC[C@]4(C)C3CC[C@@]21C (stereo partly drawn) [Compound 11, 17alpha-O-[2′(R)]Tetrahydropyranyloxypregn-4-ene-3,20-dione]
- Daunorubicin accumulation (R7 cells): 108.08 ± 6.28 % of the accumulation measured in the presence of cyclosporine A

Compound: CC(=O)[C@H]1CC[C@H]2[C@H]3[C@H]([C@H](OC(=O)c4ccccc4)C[C@]12C)[C@@]1(C)CCC(=O)C[C@H]1C[C@H]3OC(=O)c1ccccc1 [Compound 30, 7alpha,11alpha-Di benzoyloxy(5beta)pregnane-3,20-dione]
- Daunorubicin accumulation (R7 cells): 75.39 ± 0.39 % of the accumulation measured in the presence of cyclosporine A

Compound: CC(=O)C1CCC2C3C([C@H](OC4CCCCO4)C[C@]12C)[C@@]1(C)CCC(=O)C[C@H]1C[C@H]3OC(=O)c1ccccc1 (stereo partly drawn) [Compound 32, 7α-Benzoyloxy-11α-O-[2′(S)]tetrahydropyranyloxy (5β)pregnane-3,20-dione]
- Daunorubicin accumulation (R7 cells): 103.88 ± 4.53 % of the accumulation measured in the presence of cyclosporine A

Compound: CC(=O)C1CCC2C3C([C@H](OC4CCCCO4)C[C@]12C)[C@@]1(C)CCC(=O)C[C@H]1C[C@@H]3OC(=O)c1ccccc1 (stereo partly drawn) [Compound 39, 7β-Benzoyloxy-11α-O-[2′(S)]tetrahydropyranyloxy(5β)pregnane-3,20-dione]
- Daunorubicin accumulation (R7 cells): 109.0 ± 1.0 % of the accumulation measured in the presence of cyclosporine A

Compound: CC(=O)C1CCC2C3C([C@H](OC4CCCCO4)C[C@]12C)[C@@]1(C)CCC(=O)C[C@H]1C[C@@H]3OC(=O)c1ccccc1 (stereo partly drawn) [Compound 40, 7β-Benzoyloxy-11α-O-[2′(R)]tetrahydropyranyloxy(5β) pregnane-3,20-dione]
- Daunorubicin accumulation (R7 cells): 89.5 ± 0.5 % of the accumulation measured in the presence of cyclosporine A

Compound: CC(=O)[C@H]1CC[C@H]2[C@H]3[C@H]([C@H](OC(=O)c4ccccc4)C[C@]12C)[C@@]1(C)CCC(=O)C[C@H]1C[C@@H]3OC(=O)c1ccccc1 [Compound 41, 7β,11α-Dibenzoyloxy(5β)pregnane-3,20-dione]
- Daunorubicin accumulation (R7 cells): 73.3 ± 0.5 % of the accumulation measured in the presence of cyclosporine A

Compound: CC(=O)[C@@]1(OC2CCCCO2)CCC2C3CC[C@@H]4CC(=O)CC[C@]4(C)C3[C@H](OC3CCCCO3)C[C@@]21C (stereo partly drawn) [Compound 52, 11α,17α-Bis-O-[2′(R),2′(R)]tetrahydropyranyloxy(5β)pregnane-3,20-dione]
- accumulation of daunorubicin compared in words with cyclosporine A or progesterone (R7 cells): equivalent to that observed with cyclosporine A
- Daunorubicin accumulation (R7 cells): 102.01 ± 2.0 % of the accumulation measured in the presence of cyclosporine A

Compound: CC(=O)[C@@]1(O[C@H]2CCCCO2)CC[C@H]2[C@@H]3CC[C@@H]4CC(=O)CC[C@]4(C)[C@H]3[C@H](O[C@H]3CCCCO3)C[C@@]21C [Compound 53, 11α,17α-Bis-O-[2′(S),2′(S)]Tetrahydropyranyloxy(5β)pregnane-3,20-dione]
- accumulation of daunorubicin compared in words with cyclosporine A or progesterone (R7 cells): equivalent to that observed with cyclosporine A
- Daunorubicin accumulation (R7 cells): 107.0 ± 5.0 % of the accumulation measured in the presence of cyclosporine A

Compound: COC(=O)CC[C@@H](C)[C@H]1CC[C@H]2[C@@H]3[C@H](OC(=O)c4ccccc4)CC4CC(=O)CC[C@]4(C)[C@H]3C[C@H](OC(=O)c3ccccc3)[C@]12C (stereo partly drawn) [Compound 57, Methyl 3-oxo-7alpha,12alpha-dibenzoyloxycholanate]
- Daunorubicin accumulation (R7 cells): 74 ± 1.0 % of the accumulation measured in the presence of cyclosporine A

Compound: COC(=O)CC[C@@H](C)[C@H]1CC[C@H]2[C@@H]3[C@H](OC(=O)c4ccccc4)CC4CC(=O)CC[C@]4(C)[C@H]3C[C@H](O[C@H]3CCCCO3)[C@]12C (stereo partly drawn) [Compound 59, Methyl 3-oxo-7α-benzoyloxy-12α-O-[2′(S)]tetrahydropyranyloxycholanate]
- Surviving cells R7 cells (% untreated cells) (K562/R7 cells [1]): 1.8 ± 0.1 % untreated cells
- Daunorubicin accumulation (R7 cells): 85.8 ± 2.6 % of the accumulation measured in the presence of cyclosporine A

Compound: COC(=O)CC[C@@H](C)[C@H]1CC[C@H]2[C@@H]3[C@H](O[C@H]4CCCCO4)CC4CC(=O)CC[C@]4(C)[C@H]3C[C@H](OC(=O)c3ccccc3)[C@]12C (stereo partly drawn) [Compound 63, methyl 3-oxo-12α-benzoyloxy-7α-O-[2′(S)]tetrahydro-pyranyloxycholanate]
- activity compared with cyclosporine A (in words) (K562/R7 cells [1]): activity higher than that of the reference compound cyclosporine A
- Surviving cells R7 cells (% untreated cells) (K562/R7 cells [1]): 0.7 ± 0.06 % untreated cells
- Daunorubicin accumulation (R7 cells): 104.7 ± 7.0 % of the accumulation measured in the presence of cyclosporine A

Compound: COC(=O)CC[C@@H](C)[C@H]1CC[C@H]2[C@@H]3[C@H](O[C@@H]4CCCCO4)CC4CC(=O)CC[C@]4(C)[C@H]3C[C@H](OC(=O)c3ccccc3)[C@]12C (stereo partly drawn) [Compound 64, methyl 3-oxo-12α-benzoyloxy-7α-O-[2′(R)]tetra-hydropyranyloxycholanate]
- activity compared with cyclosporine A (in words) (K562/R7 cells [1]): activity higher than that of the reference compound cyclosporine A
- Surviving cells R7 cells (% untreated cells) (K562/R7 cells [1]): 0.8 ± 0.06 % untreated cells
- Daunorubicin accumulation (R7 cells): 10.0 ± 1.5 % of the accumulation measured in the presence of cyclosporine A

Compound: COCCC[C@@H](C)[C@H]1CC[C@H]2[C@@H]3[C@H](OC(=O)c4ccccc4)CC4CC(=O)CC[C@]4(C)[C@H]3C[C@H](OC(=O)c3ccccc3)[C@]12C (stereo partly drawn) [Compound 71, 3-oxo-7α,12α-dibenzoyloxy-24-methoxycholane]
- Daunorubicin accumulation (R7 cells): 50.50 ± 7.5 % of the accumulation measured in the presence of cyclosporine A

Compound: COCCC[C@@H](C)[C@H]1CC[C@H]2[C@@H]3[C@H](O[C@H]4CCCCO4)CC4CC(=O)CC[C@]4(C)[C@H]3C[C@H](OC(=O)c3ccccc3)[C@]12C (stereo partly drawn) [Compound 73, 3-oxo-12α-benzoyloxy-7α-O-[2′(S)]tetrahydro-pyranyloxy-24-methoxycholane]
- Daunorubicin accumulation (R7 cells): 63.5 ± 5.5 % of the accumulation measured in the presence of cyclosporine A

Compound: COCCC[C@@H](C)[C@H]1CC[C@H]2[C@@H]3[C@H](O[C@@H]4CCCCO4)CC4CC(=O)CC[C@]4(C)[C@H]3C[C@H](OC(=O)c3ccccc3)[C@]12C (stereo partly drawn) [Compound 74, 3-oxo-12α-benzoyloxy-7α-O-[2′(R)]tetrahydropyranyloxy-24-methoxycholane]
- Daunorubicin accumulation (R7 cells): 68.0 ± 15.0 % of the accumulation measured in the presence of cyclosporine A

Compound: CC(=O)[C@H]1CC[C@H]2[C@H]3[C@H]([C@H](O)C[C@]12C)[C@@]1(C)CCC(=O)C[C@H]1C[C@H]3OC1CCCCO1 (stereo partly drawn) [Compound 204, 7α-O-[2′(R+S)]Tetrahydropyranyloxy-11α-hydroxy(5β)pregnane-3,20-dione]
- Surviving cells R7 cells (% untreated cells) (K562/R7 cells [1]): 2.8 ± 0.7 % untreated cells
- Daunorubicin accumulation (R7 cells): 87.4 ± 3.5 % of the accumulation measured in the presence of cyclosporine A

Compound: COC(=O)CC[C@@H](C)C1CCC2C3C[C@H](OC4CCCCO4)[C@@H]4CC(=O)CCC4(C)C3CCC21C (stereo partly drawn) [Compound 210, Methyl 3-oxo-6α-O-[2′(R+S)]tetrahydropyranyloxycholanate]
- Surviving cells R7 cells (% untreated cells) (K562/R7 cells [1]): 4.1 ± 1.1 % untreated cells
- Daunorubicin accumulation (R7 cells): 66.7 ± 1.8 % of the accumulation measured in the presence of cyclosporine A

Compound: COc1cc2c(c(OC)c1OC)-c1ccc(OC)c(=O)cc1[C@@H](NC(C)=O)CC2 [colchicine]
- resistance of the cells to the cytotoxic drug (in words) (K562/R7 cells [2]): resistant

Compound: CC(=O)[C@H]1CC[C@H]2[C@@H]3CCC4=CC(=O)CC[C@]4(C)[C@H]3CC[C@]12C [progesterone, reference compound]
- Daunorubicin accumulation (R7 cells): 36.27 ± 4.9 % of the accumulation measured in the presence of cyclosporine A

Compound: Cyclosporine A [reference compound]
- Surviving cells R7 cells (% untreated cells) (K562/R7 cells [1]): 1.6 ± 0.5 % untreated cells
